Several values for one entry are separate records, joined by “and”; a condition that tells them apart may be missing. Equal values may be shown once.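 How tested: cells in 96-well plates exposed to compound for 48 hours at five concentrations. At the GI50, growth is halved. TGI: total growth inhibition.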
Legend:
Assay in all cases: NCI anticancer screen, dose series, 48 h
A498 renal = tested on: A498 renal
BT-549 breast = tested on: BT-549 breast
DU-145 prostate = tested on: DU-145 prostate
HCT-116 colon = tested on: HCT-116 colon
MCF7 breast = tested on: MCF7 breast
MDA-MB-435 = tested on: MDA-MB-435
MOLT-4 leukemia = tested on: MOLT-4 leukemia
OVCAR-3 ovarian = tested on: OVCAR-3 ovarian
SF-539 CNS = tested on: SF-539 CNS
SK-MEL-2 melanoma = tested on: SK-MEL-2 melanoma

Compound | GI50 (A498 renal) | TGI (A498 renal) | GI50 (BT-549 breast) | TGI (BT-549 breast) | GI50 (DU-145 prostate) | TGI (DU-145 prostate) | GI50 (HCT-116 colon) | TGI (HCT-116 colon) | GI50 (MCF7 breast) | TGI (MCF7 breast) | GI50 (MDA-MB-435) | TGI (MDA-MB-435) | GI50 (MOLT-4 leukemia) | TGI (MOLT-4 leukemia) | GI50 (OVCAR-3 ovarian) | TGI (OVCAR-3 ovarian) | GI50 (SF-539 CNS) | TGI (SF-539 CNS) | GI50 (SK-MEL-2 melanoma) | TGI (SK-MEL-2 melanoma)
COc1ncnc(NS(=O)(=O)c2ccc(N=C3C(=O)N(CN4CCN(c5c(F)cc6c(=O)c(C(=O)O)cn(C7CC7)c6c5OC)CC4C)c4ccc(Cl)cc43)cc2)c1OC (centres undefined) | 40.8 µM | > 50 µM | 20.6 µM | > 50 µM | 21 µM | > 50 µM | 11.5 µM | > 50 µM | 12 µM | > 50 µM | 9.34 µM | 19 µM | > 50 µM | > 50 µM | 13.1 µM | > 50 µM | 16.8 µM | > 50 µM | 35.2 µM | > 50 µM
CN(C)CCSC1=Nc2ccc(Cl)cc2C(c2ccccc2Cl)=NC1 | 18.7 µM and > 100 µM | 34.2 µM and > 100 µM | – | > 100 µM | 14.4 µM and 60.2 µM | 30.5 µM and > 100 µM | 13.8 µM and 58.4 µM | 31.1 µM and > 100 µM | 12 µM and 67.4 µM | 25.5 µM and > 100 µM | – | 28.4 µM and 38.7 µM | – | > 100 µM and 94.3 µM | 17.3 µM and > 100 µM | 31.8 µM and > 100 µM | 17.3 µM and > 100 µM | 31.6 µM and > 100 µM | – | > 100 µM
COc1cc2c(c(OC)c1OC)-c1ccc(OC)c(=O)cc1C(NC(=O)c1ccc(N=[N+]=[N-])cc1)CC2 (centres undefined) | – | 0.0847 µM | – | > 100 µM | – | 0.439 µM | – | 18.2 µM | – | > 100 µM | – | 0.0473 µM | – | 9.82 µM | – | 0.0555 µM | – | 0.0611 µM | – | –
CN(C(=O)c1ccc(C(F)(F)F)cc1)c1ccc(Oc2ccc3c(c2)cc(C(=O)N2CCN(Cc4ccc(OC(F)F)cc4)CC2)n3C)nc1 | 0.729 µM | > 100 µM | 6.71 µM | > 100 µM | > 100 µM | > 100 µM | < 0.01 µM | > 100 µM | 0.515 µM | 43.4 µM | 3.73 µM | > 100 µM | 0.881 µM | > 100 µM | 11.3 µM | > 100 µM | > 100 µM | > 100 µM | 11.9 µM | > 100 µM
Fc1cc2[nH]ncc2c2c3c(c(-c4cn[nH]c4)nc12)CCCC3 | 0.365 µM | 1.64 µM | 1.38 µM | 4.94 µM | 1.09 µM | 15.5 µM | 0.498 µM | > 37.5 µM | 1.45 µM | 12.8 µM | 0.959 µM | 3.61 µM | 1.72 µM | 6.15 µM | 1.53 µM | 6.91 µM | 1.14 µM | 2.82 µM | 0.842 µM | 3.46 µM
O=C1c2cc3c(cc2-c2c1c1ccc(F)cc1c(=O)n2CCCNCCO)OCO3 | 0.137 µM | 0.491 µM | 0.238 µM | 1.34 µM | 0.0329 µM | 1.09 µM | 0.019 µM | 0.196 µM | – | 0.166 µM | 0.0674 µM | 0.955 µM | 0.024 µM | 1.24 µM | 0.0751 µM | 0.826 µM | 0.0407 µM | 0.324 µM | 0.273 µM | 0.716 µM
OC(c1nc2ccccc2[nH]1)C(O)C(O)C(O)c1nc2ccccc2[nH]1 (centres undefined) | – | > 100 µM | – | > 100 µM | – | > 100 µM | – | > 100 µM | – | > 100 µM | – | > 100 µM | – | > 100 µM | – | > 100 µM | – | > 100 µM | – | > 100 µM

Source: PubChem BioAssay (NCI)
